Here are results for 17 compounds from publication PMC7158045 (BMC Plant Biology, 2020).

Broadly, the pKd is −log10 of the Kd, conventionally taken in molar units. The low end stands for a large Kd, the high end for a small Kd.

For experiment [1], the target named is T1, ZmDRIK1 (DROUGHT RESPONSIVE INACTIVE KINASE 1), kinase domain (Zea mays, UniProt C0P4K9).
T1 construct: gene ZEAMMB73_Zm00001d028770; ZmDRIK1-KD R187-S514 (kinase domain)
T1 sequence (C0P4K9 187-514): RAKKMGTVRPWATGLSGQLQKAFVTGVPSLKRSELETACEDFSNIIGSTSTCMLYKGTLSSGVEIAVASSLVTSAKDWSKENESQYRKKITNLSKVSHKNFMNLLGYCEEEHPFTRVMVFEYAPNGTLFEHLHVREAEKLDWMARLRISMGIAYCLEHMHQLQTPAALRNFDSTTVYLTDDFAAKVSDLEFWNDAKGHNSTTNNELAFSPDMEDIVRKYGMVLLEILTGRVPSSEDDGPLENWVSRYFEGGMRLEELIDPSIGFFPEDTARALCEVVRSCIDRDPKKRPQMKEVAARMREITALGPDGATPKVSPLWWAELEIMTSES
The experiment in a line: ITC; cocrystal structure at […] Å; DSF (ΔTm > […] °C). The experiment is classed as binding. In general terms: Isothermal titration calorimetry measures the heat released or taken up as one component is titrated into another.

In another experiment the target is T2, ZmDRIK1-R187-P492 (Zea mays, UniProt C0P4K9).
T2 construct: kinase domain, R187-P492
T2 sequence (C0P4K9 1-514): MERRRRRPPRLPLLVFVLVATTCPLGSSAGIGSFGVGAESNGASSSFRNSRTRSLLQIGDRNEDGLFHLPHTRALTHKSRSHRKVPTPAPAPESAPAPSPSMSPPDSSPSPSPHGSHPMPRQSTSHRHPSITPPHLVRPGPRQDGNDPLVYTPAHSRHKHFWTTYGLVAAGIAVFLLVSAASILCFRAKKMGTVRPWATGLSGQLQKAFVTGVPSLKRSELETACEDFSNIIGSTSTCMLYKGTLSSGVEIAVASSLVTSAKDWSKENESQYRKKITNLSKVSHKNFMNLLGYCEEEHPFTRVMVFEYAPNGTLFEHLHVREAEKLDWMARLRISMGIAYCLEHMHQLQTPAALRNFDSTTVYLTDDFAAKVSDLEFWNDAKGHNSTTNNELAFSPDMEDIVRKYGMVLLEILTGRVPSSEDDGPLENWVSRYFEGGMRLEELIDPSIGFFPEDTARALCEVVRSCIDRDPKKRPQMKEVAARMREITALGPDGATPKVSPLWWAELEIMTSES
The experiment in a line: biochemical. To be noted: read-out: dTm B, DSF, Boltzmann fit, 0.1% DMSO.

The target of a further experiment is T3, ZmDRIK1-K217-S514 (Zea mays, UniProt C0P4K9).
T3 construct: kinase domain, K217-S514
T3 sequence (C0P4K9 1-514): T2 sequence (C0P4K9 1-514)
The experiment in a line: biochemical. To be noted: read-out: dTm B, sheet ZmDRIK1-K217-S514;; DSF, Boltzmann fit, 0.1% DMSO.

For experiment [2], the target named is T1, ZmDRIK1 (DROUGHT RESPONSIVE INACTIVE KINASE 1), kinase domain. The experiment is described as follows: biochemical. The conditions noted are these: read-out: dTm B, sheet ZmDRIK1-R187-S514;; DSF, Boltzmann fit, 0.1% DMSO.
The next experiment deals with T4, ZmDRIK1-K217-P492 (Zea mays, UniProt C0P4K9).
T4 construct: kinase domain, K217-P492
T4 sequence (C0P4K9 1-514): T2 sequence (C0P4K9 1-514)
The experiment is described as follows: biochemical. To be noted: read-out: dTm B, sheet ZmDRIK1-K217-P492;; DSF, Boltzmann fit, 0.1% DMSO.

pKd: −log10 of the molar value. Structures can show the parent of a compound that is named as a salt.

In turn, `Cc1cc(Nc2cc(N3CCN(C)CC3)nc(/C=C/c3ccccc3)n2)n[nH]1` [ENMD-2076] showed a pKd in experiment [1] of 6.26. The ΔTm at 10 µM at ZmDRIK1-R187-P492 was found to be 4.32 °C; at ZmDRIK1-K217-S514, 4.13 °C; in experiment [2], 4.28 °C; at ZmDRIK1-K217-P492 it was 3.49 °C.

Take `NC(=O)c1cccc(-c2cc(Nc3ccc(OC(F)(F)F)cc3)ncn2)c1` [GNF-2]: the ΔTm at 10 µM on ZmDRIK1-R187-P492 is -7.74 °C; at ZmDRIK1-K217-S514, -4.34 °C; in experiment [2], -0.138 °C; on ZmDRIK1-K217-P492, -9.47 °C.

As for `C[C@]1(O)C[C@@H](c2nc(-c3ccc4ccc(-c5ccccc5)nc4c3)c3c(N)nccn32)C1` [OSI-906 (Linsitinib)], the ΔTm at 10 µM on ZmDRIK1-R187-P492 is -0.547 °C; on ZmDRIK1-K217-S514, -0.681 °C; in experiment [2], -0.97 °C; at ZmDRIK1-K217-P492, -0.53 °C.

As to `CC(C)n1nc(-c2ccc3oc(N)nc3c2)c2c(N)ncnc21` [INK 128 (MLN0128)], the ΔTm at 10 µM was -0.315 °C at ZmDRIK1-R187-P492, -0.433 °C at ZmDRIK1-K217-S514, -0.628 °C in experiment [2] and -0.659 °C at ZmDRIK1-K217-P492.

Regarding `Cc1cnc(NC(=O)Nc2cc(Br)c(C)cc2OC[C@@H]2CNCCO2)cn1` [LY2603618], the ΔTm at 10 µM was -0.548 °C at ZmDRIK1-R187-P492, -0.525 °C at ZmDRIK1-K217-S514, -0.608 °C in experiment [2] and -0.992 °C at ZmDRIK1-K217-P492.

Turning to `O=C(Nc1cc(C(F)(F)F)cc(C(F)(F)F)c1)c1cc(Cl)ccc1O` [IMD 0354], the ΔTm at 10 µM at ZmDRIK1-R187-P492 is 0.639 °C; on ZmDRIK1-K217-S514 it was 1.2 °C; in experiment [2] it was -0.239 °C; on ZmDRIK1-K217-P492, 0.526 °C.

Turning to `CCn1c2ccccc2c2cc(Nc3ccnc(NCCCN4CCOCC4)n3)ccc21` [EHop-016], the ΔTm at 10 µM on ZmDRIK1-R187-P492 was -0.204 °C; on ZmDRIK1-K217-S514, -0.29 °C; in experiment [2] it was -0.693 °C; on ZmDRIK1-K217-P492, -1.16 °C.

On to `O=C(Nc1cccc(Cl)c1)Nc1ncc(CCNc2ncnc3ccsc23)s1` [SNS-314 Mesylate], for which the ΔTm at 10 µM on ZmDRIK1-R187-P492 is 0.159 °C; at ZmDRIK1-K217-S514 it was -1.86 °C; in experiment [2] it was -23.9 °C; on ZmDRIK1-K217-P492 it was -0.277 °C.

As for `COc1ccc(-c2ccc3c(N4CCOCC4)nc(N4C[C@@H](C)O[C@@H](C)C4)nc3n2)cc1CO` [KU-0063794], the ΔTm at 10 µM on ZmDRIK1-R187-P492 is -0.299 °C; on ZmDRIK1-K217-S514, -0.302 °C; in experiment [2], -0.516 °C; on ZmDRIK1-K217-P492, -1.21 °C.

For the compound `CC(C)(C)c1cc(C=C(C#N)C#N)cc(Br)c1O` [AG-1024], the ΔTm at 10 µM was -0.615 °C at ZmDRIK1-R187-P492, -0.233 °C at ZmDRIK1-K217-S514, -0.562 °C in experiment [2] and -1.09 °C at ZmDRIK1-K217-P492.

With `CC(C)CC(=O)Nc1n[nH]c2c1CN(C(=O)C1CCN(C)CC1)C2(C)C` [PHA-793887], the ΔTm at 10 µM is -0.158 °C at ZmDRIK1-R187-P492, -0.312 °C at ZmDRIK1-K217-S514, -0.826 °C in experiment [2] and -0.634 °C at ZmDRIK1-K217-P492.

For `CSc1cccc(Nc2ncc3cc(-c4c(Cl)cccc4Cl)c(=O)n(C)c3n2)c1` [PD173955], the ΔTm at 10 µM at ZmDRIK1-R187-P492 was -0.72 °C; on ZmDRIK1-K217-S514, -0.595 °C; in experiment [2], -1.36 °C; on ZmDRIK1-K217-P492, -2.14 °C.

Regarding `COc1cc2nccc(Oc3ccc(NC(=O)Nc4cc(C)on4)c(Cl)c3)c2cc1OC` [Tivozanib (AV-951)], the ΔTm at 10 µM on ZmDRIK1-R187-P492 is -3.15 °C; at ZmDRIK1-K217-S514 it was -0.402 °C; in experiment [2], -0.0903 °C; on ZmDRIK1-K217-P492, -3.26 °C.

Regarding `Oc1cccc(-c2nc(N3CCOCC3)c3oc4ncccc4c3n2)c1` [PI-103], the ΔTm at 10 µM at ZmDRIK1-R187-P492 is -0.366 °C; on ZmDRIK1-K217-S514, -0.559 °C; in experiment [2] it was -0.608 °C; at ZmDRIK1-K217-P492 it was -1.14 °C.

`CCS(=O)(=O)c1cccc(-c2cc(C(=O)NC3CCN(C)CC3)c(C)c3[nH]c4ncc(C)cc4c23)c1` [TAK-901]: the ΔTm at 10 µM was -0.0329 °C at ZmDRIK1-R187-P492, -0.0934 °C on ZmDRIK1-K217-S514, -0.544 °C in experiment [2] and -0.353 °C on ZmDRIK1-K217-P492.

Consider `O=C1Nc2ccccc2/C1=C1/Nc2ccccc2C1=O` [Indirubin], for which the ΔTm at 10 µM on ZmDRIK1-R187-P492 is -0.337 °C; at ZmDRIK1-K217-S514 it was -0.386 °C; in experiment [2], -0.784 °C; on ZmDRIK1-K217-P492, -1.26 °C.

Regarding `COC[C@H]1OC(=O)c2coc3c2[C@@]1(C)C1=C(C3=O)[C@@H]2CCC(=O)[C@@]2(C)C[C@H]1OC(C)=O` [Wortmannin], the ΔTm at 10 µM was -0.289 °C at ZmDRIK1-R187-P492, -0.299 °C on ZmDRIK1-K217-S514, -0.735 °C in experiment [2] and -1.08 °C at ZmDRIK1-K217-P492.
